Source: ChEMBL document CHEMBL1201862, “PubChem BioAssay data set” (2004)
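Cultured in 96-well plates, cells were exposed to test compound for 48 hours across five concentrations. Here, GI50 denotes the concentration required for 50% inhibition of growth.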 Calls of active or inactive are those of the source. Cut-off read from the data, not from the text of the source: active = GI50 up to about 1.1 µM and inactive = higher.

Key:
Assay in all cases: NCI anticancer screen, dose series, 48 h
786-0 = tested on: 786-0
A498 = tested on: A498
A549 = tested on: A549
ACHN = tested on: ACHN
BT-549 = tested on: BT-549
CAKI-1 = tested on: CAKI-1
CCRF-CEM = tested on: CCRF-CEM
COLO 205 = tested on: COLO 205
DU-145 = tested on: DU-145
EKVX = tested on: EKVX
HCC 2998 = tested on: HCC 2998
HCT-116 = tested on: HCT-116
HCT-15 = tested on: HCT-15
HL-60 = tested on: HL-60
HOP-62 = tested on: HOP-62
HOP-92 = tested on: HOP-92
HT-29 = tested on: HT-29
Hs-578T = tested on: Hs-578T
IGROV-1 = tested on: IGROV-1
K562 = tested on: K562
KM12 = tested on: KM12
LOX IMVI = tested on: LOX IMVI
M14 = tested on: M14
MCF7 = tested on: MCF7
MDA-MB-231 = tested on: MDA-MB-231
MDA-MB-435 = tested on: MDA-MB-435
MDA-N = tested on: MDA-N
MOLT-4 = tested on: MOLT-4
Malme-3M = tested on: Malme-3M
NCI-H226 = tested on: NCI-H226
NCI-H23 = tested on: NCI-H23
NCI-H460 = tested on: NCI-H460
NCI-H522 = tested on: NCI-H522
NCI/ADR-RES = tested on: NCI/ADR-RES
OVCAR-3 = tested on: OVCAR-3
OVCAR-4 = tested on: OVCAR-4
OVCAR-5 = tested on: OVCAR-5
OVCAR-8 = tested on: OVCAR-8
PC-3 = tested on: PC-3
RPMI-8226 = tested on: RPMI-8226
RXF 393 = tested on: RXF 393
SF-268 = tested on: SF-268
SF-295 = tested on: SF-295
SF-539 = tested on: SF-539
SK-MEL-28 = tested on: SK-MEL-28
SK-MEL-2 = tested on: SK-MEL-2
SK-MEL-5 = tested on: SK-MEL-5
SK-OV-3 = tested on: SK-OV-3
SN12C = tested on: SN12C
SNB-19 = tested on: SNB-19
SNB-75 = tested on: SNB-75
SR = tested on: SR
SW-620 = tested on: SW-620
T47D = tested on: T47D
TK-10 = tested on: TK-10
U-251 = tested on: U-251
UACC-257 = tested on: UACC-257
UACC-62 = tested on: UACC-62
UO-31 = tested on: UO-31

SMILES: COc1cc(/C=C\c2nnc(/C=C\c3ccc(O)c(OC)c3)s2)ccc1O
- GI50 (786-0): 3.85 µM (inactive)
- GI50 (A498): 2.27 µM (inactive)
- GI50 (A549): 3.13 µM (inactive)
- GI50 (ACHN): 3.61 µM (inactive)
- GI50 (BT-549): 1.89 µM (inactive)
- GI50 (CAKI-1): 4.62 µM (inactive)
- GI50 (CCRF-CEM): 2.18 µM (inactive)
- GI50 (COLO 205): 13.8 µM (inactive)
- GI50 (DU-145): 2.32 µM (inactive)
- GI50 (EKVX): 3.74 µM (inactive)
- GI50 (HCC 2998): 3.48 µM (inactive)
- GI50 (HCT-116): 2.36 µM (inactive)
- GI50 (HCT-15): 1.49 µM
- GI50 (HL-60): 1.64 µM (inactive)
- GI50 (HOP-62): 5.65 µM (inactive)
- GI50 (HOP-92): 4.79 µM (inactive)
- GI50 (HT-29): 7.31 µM (inactive)
- GI50 (Hs-578T): 3.01 µM (inactive)
- GI50 (IGROV-1): 3.78 µM (inactive)
- GI50 (K562): 1.77 µM (inactive)
- GI50 (KM12): 2.2 µM (inactive)
- GI50 (LOX IMVI): 2.59 µM (inactive)
- GI50 (M14): 2.11 µM (inactive)
- GI50 (MCF7): 0.69 µM (active)
- GI50 (MDA-MB-231): 4.94 µM (inactive)
- GI50 (MDA-MB-435): 0.495 µM (active)
- GI50 (MDA-N): 0.689 µM (active)
- GI50 (MOLT-4): 1.74 µM (inactive)
- GI50 (Malme-3M): 2.11 µM (inactive)
- GI50 (NCI-H226): 7.28 µM (inactive)
- GI50 (NCI-H23): 2.45 µM (inactive)
- GI50 (NCI-H460): 3.09 µM (inactive)
- GI50 (NCI-H522): 1.67 µM (inactive)
- GI50 (NCI/ADR-RES): 1.6 µM (inactive)
- GI50 (OVCAR-3): 1.91 µM (inactive)
- GI50 (OVCAR-4): 2.61 µM (inactive)
- GI50 (OVCAR-5): 22.2 µM (inactive)
- GI50 (OVCAR-8): 3.78 µM (inactive)
- GI50 (PC-3): 3.94 µM (inactive)
- GI50 (RPMI-8226): 1.98 µM (inactive)
- GI50 (RXF 393): 1.16 µM (inactive)
- GI50 (SF-268): 4.06 µM (inactive)
- GI50 (SF-295): 3.48 µM (inactive)
- GI50 (SF-539): 2.44 µM (inactive)
- GI50 (SK-MEL-28): 5.35 µM (inactive)
- GI50 (SK-MEL-2): 3.61 µM (inactive)
- GI50 (SK-MEL-5): 1.16 µM (inactive)
- GI50 (SK-OV-3): 4.41 µM (inactive)
- GI50 (SN12C): 4.31 µM (inactive)
- GI50 (SNB-19): 4.58 µM (inactive)
- GI50 (SNB-75): 2.33 µM (inactive)
- GI50 (SR): 1.24 µM (inactive)
- GI50 (SW-620): 1.74 µM (inactive)
- GI50 (T47D): 2.12 µM (inactive)
- GI50 (TK-10): 4.89 µM (inactive)
- GI50 (U-251): 3.06 µM (inactive)
- GI50 (UACC-257): 2.16 µM (inactive)
- GI50 (UACC-62): 2.48 µM (inactive)
- GI50 (UO-31): 3.47 µM (inactive)

SMILES: C=CCn1c2c(c3ccccc3c1=O)C(=O)c1ccccc1-2
- GI50 (786-0): 22.4 µM (inactive)
- GI50 (A498): > 100 µM (inactive)
- GI50 (A549): > 100 µM (inactive)
- GI50 (ACHN): 51.9 µM (inactive)
- GI50 (BT-549): > 100 µM (inactive)
- GI50 (CAKI-1): > 100 µM (inactive)
- GI50 (CCRF-CEM): > 100 µM (inactive)
- GI50 (COLO 205): > 100 µM (inactive)
- GI50 (DU-145): > 89.3 µM (inactive)
- GI50 (EKVX): > 100 µM (inactive)
- GI50 (HCC 2998): > 100 µM (inactive)
- GI50 (HCT-116): > 26.2 µM (inactive)
- GI50 (HCT-15): > 100 µM
- GI50 (HL-60): 3.41 µM (inactive)
- GI50 (HOP-62): 31.4 µM (inactive)
- GI50 (HOP-92): > 100 µM (inactive)
- GI50 (HT-29): > 100 µM (inactive)
- GI50 (Hs-578T): > 60.3 µM (inactive)
- GI50 (IGROV-1): > 100 µM (inactive)
- GI50 (K562): > 23 µM (inactive)
- GI50 (KM12): > 72.9 µM (inactive)
- GI50 (LOX IMVI): > 100 µM (inactive)
- GI50 (M14): > 100 µM (inactive)
- GI50 (MCF7): > 100 µM (inactive)
- GI50 (MDA-MB-231): > 85.3 µM (inactive)
- GI50 (MDA-MB-435): > 87.3 µM (inactive)
- GI50 (MDA-N): > 100 µM (inactive)
- GI50 (MOLT-4): 3.4 µM (inactive)
- GI50 (Malme-3M): > 100 µM (inactive)
- GI50 (NCI-H226): > 100 µM (inactive)
- GI50 (NCI-H23): > 100 µM (inactive)
- GI50 (NCI-H460): 6.28 µM (inactive)
- GI50 (NCI-H522): > 100 µM (inactive)
- GI50 (NCI/ADR-RES): > 100 µM (inactive)
- GI50 (OVCAR-3): > 100 µM (inactive)
- GI50 (OVCAR-4): 54.8 µM (inactive)
- GI50 (OVCAR-5): > 100 µM (inactive)
- GI50 (OVCAR-8): > 88.9 µM (inactive)
- GI50 (PC-3): > 100 µM (inactive)
- GI50 (RPMI-8226): > 25.6 µM (inactive)
- GI50 (RXF 393): 15.9 µM (inactive)
- GI50 (SF-268): > 68.1 µM (inactive)
- GI50 (SF-295): > 77.8 µM (inactive)
- GI50 (SF-539): > 70.6 µM (inactive)
- GI50 (SK-MEL-28): > 100 µM (inactive)
- GI50 (SK-MEL-2): > 100 µM (inactive)
- GI50 (SK-MEL-5): 43.8 µM (inactive)
- GI50 (SK-OV-3): > 100 µM (inactive)
- GI50 (SN12C): > 100 µM (inactive)
- GI50 (SNB-19): 73.8 µM (inactive)
- GI50 (SNB-75): > 81.5 µM (inactive)
- GI50 (SR): 3.97 µM (inactive)
- GI50 (SW-620): 73.6 µM (inactive)
- GI50 (T47D): > 100 µM (inactive)
- GI50 (TK-10): > 50.6 µM (inactive)
- GI50 (U-251): 30.8 µM (inactive)
- GI50 (UACC-257): > 100 µM (inactive)
- GI50 (UACC-62): > 78 µM (inactive)
- GI50 (UO-31): > 100 µM (inactive)

SMILES: NC(=O)C(Nc1ccc(Cl)cc1)c1cc2cc(Br)ccc2nc1Cl (stereo unspecified)
- GI50 (786-0): > 50 µM (inactive)
- GI50 (A498): > 50 µM (inactive)
- GI50 (A549): 30.2 µM (inactive)
- GI50 (ACHN): > 50 µM (inactive)
- GI50 (BT-549): > 50 µM (inactive)
- GI50 (CAKI-1): > 50 µM (inactive)
- GI50 (CCRF-CEM): 23.8 µM (inactive)
- GI50 (COLO 205): > 50 µM (inactive)
- GI50 (DU-145): > 50 µM (inactive)
- GI50 (EKVX): 18.6 µM (inactive)
- GI50 (HCC 2998): > 50 µM (inactive)
- GI50 (HCT-116): > 50 µM (inactive)
- GI50 (HCT-15): > 50 µM
- GI50 (HL-60): > 50 µM (inactive)
- GI50 (HOP-62): > 50 µM (inactive)
- GI50 (HOP-92): 17.7 µM (inactive)
- GI50 (HT-29): > 50 µM (inactive)
- GI50 (Hs-578T): > 50 µM (inactive)
- GI50 (IGROV-1): 17.6 µM (inactive)
- GI50 (K562): 20.5 µM (inactive)
- GI50 (KM12): > 50 µM (inactive)
- GI50 (LOX IMVI): > 50 µM (inactive)
- GI50 (M14): > 50 µM (inactive)
- GI50 (MCF7): 40.8 µM (inactive)
- GI50 (MDA-MB-231): > 50 µM (inactive)
- GI50 (MDA-MB-435): 32.7 µM (inactive)
- GI50 (MDA-N): 43.7 µM (inactive)
- GI50 (MOLT-4): 19.5 µM (inactive)
- GI50 (Malme-3M): > 50 µM (inactive)
- GI50 (NCI-H226): > 50 µM (inactive)
- GI50 (NCI-H23): > 50 µM (inactive)
- GI50 (NCI-H460): > 50 µM (inactive)
- GI50 (NCI-H522): 31.5 µM (inactive)
- GI50 (NCI/ADR-RES): > 50 µM (inactive)
- GI50 (OVCAR-3): > 50 µM (inactive)
- GI50 (OVCAR-4): > 50 µM (inactive)
- GI50 (OVCAR-5): > 50 µM (inactive)
- GI50 (OVCAR-8): > 50 µM (inactive)
- GI50 (PC-3): > 50 µM (inactive)
- GI50 (RPMI-8226): 27.8 µM (inactive)
- GI50 (RXF 393): 41.1 µM (inactive)
- GI50 (SF-268): > 50 µM (inactive)
- GI50 (SF-295): > 50 µM (inactive)
- GI50 (SF-539): 18.5 µM (inactive)
- GI50 (SK-MEL-28): 48 µM (inactive)
- GI50 (SK-MEL-2): > 50 µM (inactive)
- GI50 (SK-MEL-5): 42.2 µM (inactive)
- GI50 (SK-OV-3): > 50 µM (inactive)
- GI50 (SN12C): > 50 µM (inactive)
- GI50 (SNB-19): > 50 µM (inactive)
- GI50 (SNB-75): > 50 µM (inactive)
- GI50 (SR): 18.9 µM (inactive)
- GI50 (SW-620): 34.8 µM (inactive)
- GI50 (T47D): 37.2 µM (inactive)
- GI50 (TK-10): 19.9 µM (inactive)
- GI50 (UACC-257): > 50 µM (inactive)
- GI50 (UACC-62): > 50 µM (inactive)
- GI50 (UO-31): > 50 µM (inactive)
